We go through 1 compound from US20190209567A1, “A Specific Trifluoroethyl Quinoline Analogue For Use In The Treatment of APDS” (UCB Biopharma SPRL, priority 2016, published 2019).

Where two headings read alike, the source gives them in different places.

Data set [1] deals with pAKT^S473 (PI3K signalling) in T cell lymphoblasts. In words: pAKT^S473 expression in T cell lymphoblast cultures by flow cytometry, with and without OKT3 activation. Type of data set: cell-based, human. The settings on record: for IC50: Homo sapiens, T-cell. As for the experimental part: (§1) The activity of N—{(R)-1-[8-Chloro-2-(1-oxypyridin-3-yl)quinolin-3-yl]-2,2,2-trifluoroethyl}pyrido[3,2-d]pyrimidin-4-ylamine [hereinafter referred to as “Compound (A)”] on PI3K signalling was assessed by measuring levels of either phosphorylated serine 473 of AKT (pAKT^S473) or phosphorylated serine 235/236 of ribosomal protein S6 (pS6^S235/236) using flow cytometry. The results obtained are depicted in the accompanying drawings, in which:
Analysis of phosphorylated AKT at Ser 473 (pAKT^S473) levels in T cell lymphoblast cultures by flow cytometry was performed with peripheral blood lymphocytes from healthy donors, and from APDS1 and APDS2 patients, with and without T cell receptor activation.
Generation of T cell lymphoblasts was performed in accordance with the method described by M-C. Deau et al. in J. Clin. Invest., 2014, 124, 3923-3928. In brief, peripheral blood mononuclear cells were isolated by Ficoll-Paque density gradient centrifugation (Pharmacia Biotech; catalogue no. #171-44003) and washed twice with RPMI 1640 GlutaMax medium (Invitrogen). T cell lymphoblasts were obtained by stimulating 1×10^6 cells per mL in RPMI 1640 GlutaMax medium supplemented with 10% human AB serum, penicillin/streptomycin (Invitrogen), PMA (phorbol 12-myristate 13-acetate; 20 ng/mL; Sigma-Aldrich) and ionomycin (1 μmol/L). After 2 to 3 days of activation, viable cells were separated by Ficoll-Paque density-gradient centrifugation and washed twice with RPMI 1640 GlutaMax medium, then cultured in RPMI 1640 GlutaMax medium supplemented with 10% human AB serum and 100 U/mL pro-IL2.
Analysis of phosphorylated AKT at Ser 473 levels in T cell lymphoblast cultures was performed once sufficient cells were available for the analysis (e.g. 6-12 days after starting the culture with pro-IL2).
The activity of Compound (A) was assessed in (i) the absence or (ii) the presence of T cell activation by receptor cross-linking with OKT3:
(i) Incubation of APDS1 and APDS2 patient cells for 30 minutes with Compound (A) at different concentrations (0, 1, 3, 10, 30, 100 and 200 nM). A positive control for pAKT staining (simulated cells with OKT3) was included (8×10^6 cells/patient).
(ii) Incubation of APDS1 and APDS2 patient cells for 30 minutes with Compound (A) at different concentrations (0, 1, 3, 10, 30, 100 and 200 nM) stimulated with anti-CD3 (OKT3; T cell receptor activation).
Corresponding assays were performed with T cell lymphoblasts derived from healthy donors (CTRL).

The test system of data set [2] is pS6^S235/236 (PI3K signalling) in T cell subsets in whole blood. In words: Ex vivo pS6^S235/236 expression in T cell subsets in whole blood by flow cytometry. The class given is cell-based, human. The settings on record: for IC50: Homo sapiens, T-cell. Here is the method: as §1
The levels of pS6^S235/236 in different T cell (CD3+CD4+; CD3+CD8+) subsets in total blood from healthy donors, and from APDS1 and APDS2 patients, were analyzed by flow cytometry. The blood was incubated ex vivo for 45 minutes at 37° C. with different doses of Compound (A) (0, 10, 30, 100, 300, 1000 and 2000 nM).
The phosphorylation of ribosomal protein S6 at Ser 235/236 (pS6^S235/236) in cells from healthy donors, and from APDS1 and APDS2 patients, was analyzed ex vivo in the presence and absence of Compound (A) (10-2000 nM) in different T cell (CD3+CD4+; CD3+CD8+) subsets. As noted above, total blood was incubated ex vivo for 45 minutes at 37° C.
Data were generated with blood from two (2) healthy donors, three (3) APDS1 patients and one (1) APDS2 patient.

The nature of data set [3]: APD001 Phase 1b open-label 12-week clinical study in APDS1 and APDS2 patients. The class given is in vivo, human. The settings on record: 12 weeks of treatment. An excerpt:
APD001 is an ongoing Phase 1b, multicentre, open-label, 12-week study to assess the efficacy, safety and tolerability of Compound (A) in male and female adolescents (aged from 12 to 18 years) and adults with APDS1 and APDS2.

For `[O-][n+]1cccc(-c2nc3c(Cl)cccc3cc2[C@@H](Nc2ncnc3cccnc23)C(F)(F)F)c1` [Compound (A), N—{(R)-1-[8-Chloro-2-(1-oxypyridin-3-yl)quinolin-3-yl]-2,2,2-trifluoroethyl}pyrido[3,2-d]pyrimidin-4-ylamine], the IC50 was 3 to 20 nM in data set [1] (APDS1 and APDS2 patient-derived T cell lymphoblasts, absence of T cell activation by OKT3, read-out: IC50 range, pAKT expression); 7 to 50 nM in data set [1] (APDS1 and APDS2 patient-derived T cell lymphoblasts, presence of T cell activation by OKT3, read-out: IC50 range, pAKT expression); 21 nM in data set [1] (T lymphoblasts from 3 APDS1 patients, OKT3 +, read-out: Geomean IC50, inhibition of pAKT^S473 expression); 7 to 50 nM in data set [1] (T lymphoblasts from 3 APDS1 patients, OKT3 +, read-out: Range of IC50, inhibition of pAKT^S473 expression); 8 nM in data set [1] (T lymphoblasts from 3 APDS1 patients, OKT3 −, read-out: Geomean IC50, inhibition of pAKT^S473 expression); 3 to 12 nM in data set [1] (T lymphoblasts from 3 APDS1 patients, OKT3 −, read-out: Range of IC50, inhibition of pAKT^S473 expression). The IC50 in data set [1] (T lymphoblasts from 3 APDS2 patients, OKT3 +, read-out: Geomean IC50, inhibition of pAKT^S473 expression) was 28 nM; in data set [1] (T lymphoblasts from 3 APDS2 patients, OKT3 +, read-out: Range of IC50, inhibition of pAKT^S473 expression) it was 21 to 33 nM; in data set [1] (T lymphoblasts from 3 APDS2 patients, OKT3 −, read-out: Geomean IC50, inhibition of pAKT^S473 expression), 13 nM; in data set [1] (T lymphoblasts from 3 APDS2 patients, OKT3 −, read-out: Range of IC50, inhibition of pAKT^S473 expression) it was 8 to 20 nM; in data set [1] (T lymphoblasts from 3 healthy donors, OKT3 +, read-out: Geomean IC50, inhibition of pAKT^S473 expression), 16 nM; in data set [1] (T lymphoblasts from 3 healthy donors, OKT3 +, read-out: Range of IC50, inhibition of pAKT^S473 expression), 9 to 50 nM. Also, the IC50 in data set [2] (CD3+ and CD8+ cells, one APDS2 patient, based on concentration-response curves, read-out: IC50, inhibition of pS6^S235/236 expression) is not above 100 nM; in data set [2] (CD3+ cells, 3 APDS1 patients, read-out: Geomean IC50 (adjusted for free concentration), pS6^S235/236 expression), 51 nM; in data set [2] (CD3+ cells, 3 APDS1 patients, read-out: Range of IC50 (adjusted for free concentration), pS6^S235/236 expression), 36 to 67 nM; in data set [2] (CD4+ cells, 3 APDS1 patients, read-out: Geomean IC50 (adjusted for free concentration), pS6^S235/236 expression), 41 nM; in data set [2] (CD4+ cells, 3 APDS1 patients, read-out: Range of IC50 (adjusted for free concentration), pS6^S235/236 expression), 29 to 56 nM; in data set [2] (CD8+ cells, 3 APDS1 patients, read-out: Geomean IC50 (adjusted for free concentration), pS6^S235/236 expression), 56 nM. Further, the IC50 in data set [2] (CD8+ cells, 3 APDS1 patients, read-out: Range of IC50 (adjusted for free concentration), pS6^S235/236 expression) is 40 to 72 nM. Further, the “Inhibition of pAKT^S473 expression (in words)” value in data set [1] (basal and activated T lymphoblast cultures) is “potently inhibited”. Besides, in data set [2] (CD3+ and CD8+ cells, one APDS2 patient), the “Inhibition of pS6^S235/236 expression (in words)” value is listed as “showed potent inhibition”. The “Inhibition of pS6^S235/236 signal (in words)” value in data set [2] (three T cell subsets, three APDS1 patients) is on record as “showed inhibition”. In addition, the Tolerability entry in data set [3] (APDS patients) is “well tolerated”. For the same compound, the Clinical outcome in data set [3] (three APDS patients) was “some clinical and immunological improvements together with disease activity improvement”.
